The test system of series [1] is OE33 oesophageal cancer cells. Kind of series: MTT test, overall cell growth, OE33. Format: cell-based, human. To be noted: 72 hours of incubation. The method, boiled down: (§1)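 Glioma (Hs683, T98G, U373) and oesophageal (OE21, OE33) lines seeded at 5,000–8,000 cells/well, treated 24 h later with compound at 1×10^−8 to 1×10^−4 M for 72 h at 37 °C, in sestuplicate.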
On the technique in general: Formazan colour is commonly taken as a measure of viable cells.

The test system of series [2] is Hs683 glioma cells. In words: MTT test, overall cell growth, Hs683. The class given is cell-based, human. To be noted: 72 hours of incubation. The method, boiled down:
as §1

Series [3] has as its system U373 cells. In words: Cellular imaging (videomicroscopy) of cultured U373 cells: antiproliferative class and global growth ratio. The class given is cell-based, human. Details: key to Anti proliferative class / anti-proliferative class-GGR: class I: actually cytostatic for 3 days (<10% of cell death at the 3rd day); class II: cyctostatic but becomes cytotoxic with <10% cell death on the 2nd day, and >20% of cell death on the 3rd day; class III: cytostatic but rapidly becomes cytotoxic with <10% cell death on the 1st day, >20% of cell death on the 2nd day and >50% of cell death on the 3rd day; class IV: cytotoxic (>50% of cell death on the first day). To be noted: for global growth ratio (GGR): GG treated cells/GG control cells, 72 h after drug addition, drug at its IC50 (MTT-test determined); for Anti proliferative class: cellular imaging of cultured U373 cells over three consecutive days. The essentials: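 U373-MG glioma cells seeded at low density, exposed or not to compound […], filmed by videomicroscopy for 72 h, in quadruplicate. Cells counted on first (0 h) and last (72 h) images; GGR = final/initial count, reported as GGR treated/GGR control.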

The test system of series [4] is U373 glioma cells. In words: MTT test, overall cell growth, U373. To be noted: 72 hours of incubation. Format: cell-based, human. The method, boiled down: as §1
The test system of series [5] is OE21 oesophageal cancer cells. In words: MTT test, overall cell growth, OE21. Format: cell-based, human. To be noted: 72 hours of incubation. The essentials:
as §1

The subject of series [6] is T98G glioma cells. In words: MTT test, overall cell growth, T98G. The class given is cell-based, human. To be noted: 72 hours of incubation. The method, boiled down:
as §1

Series [7] deals with human cancer cell lines (U373, T98G, Hs683, OE21, OE33). In words: MTT test, mean over the cancer cell lines. The class given is cell-based. To be noted: mean over the cancer cell lines, MTT test; read-out: IC50 Mean ± SEM. The essentials:
as §1

Results on 5 compounds are retold here after patent US9168247B2, “Beta carboline derivatives useful in the treatment of proliferative disorders” (FACULTES UNIVERSITAIRES NOTRE DAME DE LA PAIX, priority 2010, dated 2015).

The structures appear in SMILES notation.

Broadly, the IC50 is the midpoint of a concentration-inhibition curve. Regarding `C=CCOc1ccc2c(c1)[nH]c1c(C)nccc12` [JR211], the IC50 in series [1] came to 29.8 ± 0.7 µM; in series [2], 28 ± 1 µM; in series [4] it was 32 ± 2 µM; in series [5], 27 ± 2 µM; in series [6], 32 ± 0.7 µM; in series [7], 30 ± 1 µM. For the same compound, the “global growth ratio (GGR)” value in series [3] was 0.2. Besides, the Anti proliferative class entry in series [3] is “II”.
As to `Cc1nccc2c1[nH]c1cc(OCC(C)C)ccc12` [JR221], the concentration for half-maximal inhibition (IC50) was 25 ± 1 µM in series [1]; 23 ± 1 µM in series [2]; 24 ± 1 µM in series [4]; 12 ± 3 µM in series [5]; 22 ± 3 µM in series [6]; 22 ± 3 µM in series [7]. The “global growth ratio (GGR)” value in series [3] stood at 0.1. Besides, the Anti proliferative class result in series [3] is on record as “IV (class IV: cytotoxic (>50% of cell death on the first day))”.
Consider `Cc1nccc2c1[nH]c1cc(OCc3ccncc3)ccc12` [JR222], for which the half-inhibitory concentration (IC50) in series [1] was 6.3 ± 0.1 µM; in series [2] it was 8.1 ± 0.2 µM; in series [4], 2.5 ± 0.2 µM; in series [5], 5 ± 0.4 µM; in series [6] it was 3.6 ± 0.2 µM; in series [7] it was 5 ± 1 µM. The “global growth ratio (GGR)” value in series [3] was 0.4. Moreover, the Anti proliferative class result in series [3] was “II”.
As for `Cc1nccc2c1[nH]c1cc(OCCO)ccc12` [JR226], the 50% inhibitory concentration (IC50) is 63 ± 4 µM in series [1]; 41 ± 3 µM in series [2]; 42 ± 2 µM in series [4]; 30 ± 4 µM in series [5]; 53 ± 3 µM in series [6]; 46 ± 6 µM in series [7]. Besides, the “global growth ratio (GGR)” value in series [3] is 0.3. In series [3], the Anti proliferative class result was “I (class I: actually cytostatic for 3 days (<10% of cell death at the 3rd day))”.
As a reminder, the melting point is the temperature, or range, at which the solid turns liquid. The compound `Cc1nccc2c3ccc(OCCC(C)C)cc3n(CCC(C)C)c12` [PL3, 1-methyl-7-(3-methylbutyloxy)-9-(3-methylbutyl)-β-carboline] registered a melting point of 106.4 °C.
